# Laboratory results from patent publication US9062004B2, “Cannabinoid-2 agonists” (Allergan, Inc., priority 2010, dated 2015).
# Like-named read-outs stand apart in the source and are kept apart here.
# What was measured:
# [1] = target: human CB1 cannabinoid receptor (Homo sapiens (Human), UniProt P21554); assay: Radioligand binding assay, CB1 ([3H]-CP 55,940 competition); conditions: plasma membranes of HEK 293 EBNA cells transfected with human CB1; 0.72 nM [3H]-CP 55,940; NA = not active
# Procedure: (§1) A. Radioligand Binding Assay
# (§2) Plasma membranes prepared from HEK 293 EBNA cells transfected with human CB1 or CB2 cannabinoid receptors ([…] protein, receptor concentration; PerkinElmer) were used for the radioligand binding studies. The composition of incubation buffer for CB1 assay was 50 mM Tris base, 2.5 mM EDTA, 5 mM MgCl2 and 0.5 mg/ml fatty acid free BSA and for CB2 assay was 50 mM Tris base, 2.5 mM EGTA, 5 mM MgCl2 and 1 mg/ml fatty acid free BSA; pH was adjusted to 7.4 by adding 1N HCl. Plasma membranes were diluted with incubation buffer to provide a final protein concentration of 2.4 μg (CB1) or 8 μg (CB2) per well in non-binding surface polystyrene 96-well assay plates (Corning). Compound solutions were prepared in silanized glass tubes and dispensed using pipette tips with SUPERSLIK™ surface. Competition studies were performed using a final concentration of 0.72 nM [^3H]-CP 55,940 (100-180 Ci/mmol, specific activity; PerkinElmer) against test compounds. Non-specific binding was determined using 10 uM of unlabeled CP 55,940. Incubations were performed in 96-well assay plates at a final volume of 200 ul for 90 min (CB1) or 60 min (CB2) at room temperature. Binding reactions were terminated by the addition of ice-cold incubation buffer and rapid filtration through a glass fiber filter using a cell harvester (Inotech). This was followed by 8 additional washes. The glass fiber filter (0.26 mm thickness, 1-1.5 um retention; Inotech) was presoaked in cold incubation buffer containing 0.05% polyethylenimine. The filters were oven-dried at 50° C. for 60 min and counting performed using a Beckman Coulter LS 6500 Multi-Purpose Scintillation Counter (Beckman-Coulter). Binding was determined in duplicate for at least 4 separate experiments.
# [2] = target: human CB2 cannabinoid receptor (Homo sapiens (Human), UniProt P34972); assay: Radioligand binding assay, CB2 ([3H]-CP 55,940 competition); conditions: for IC50: plasma membranes of HEK 293 EBNA cells transfected with human CB2, 0.72 nM [3H]-CP 55,940, NA = not active; for CB2 Selectivity: CB2 versus CB1 binding (ratio of CB1 IC50 to CB2 IC50)
# Sequence of human CB2 cannabinoid receptor (P34972 whole entry): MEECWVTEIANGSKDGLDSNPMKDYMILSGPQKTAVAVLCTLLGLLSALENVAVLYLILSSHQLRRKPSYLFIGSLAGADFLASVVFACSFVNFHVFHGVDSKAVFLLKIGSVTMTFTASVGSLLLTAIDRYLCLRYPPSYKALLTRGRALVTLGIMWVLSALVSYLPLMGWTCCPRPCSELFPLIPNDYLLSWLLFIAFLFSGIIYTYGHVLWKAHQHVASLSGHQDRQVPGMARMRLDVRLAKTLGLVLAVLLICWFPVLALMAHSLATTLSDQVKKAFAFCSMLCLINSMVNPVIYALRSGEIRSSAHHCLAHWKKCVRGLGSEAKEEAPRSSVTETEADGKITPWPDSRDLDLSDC
# Procedure: as §1, §2
# [3] = system: mouse isolated vas deferens; assay: Mouse isolated vas deferens (MVD) bioassay, electrically stimulated contractions; assay type: cell-based; conditions: for EC50: Mus musculus
# [4] = vas deferens of male Swiss Webster mice, electrically evoked contractions, NA = not active, read-out: MVD Assay EC50
# [5] = vas deferens of male Swiss Webster mice, electrically evoked contractions, NA = not active
# Sequence of human CB1 cannabinoid receptor (P21554 whole entry): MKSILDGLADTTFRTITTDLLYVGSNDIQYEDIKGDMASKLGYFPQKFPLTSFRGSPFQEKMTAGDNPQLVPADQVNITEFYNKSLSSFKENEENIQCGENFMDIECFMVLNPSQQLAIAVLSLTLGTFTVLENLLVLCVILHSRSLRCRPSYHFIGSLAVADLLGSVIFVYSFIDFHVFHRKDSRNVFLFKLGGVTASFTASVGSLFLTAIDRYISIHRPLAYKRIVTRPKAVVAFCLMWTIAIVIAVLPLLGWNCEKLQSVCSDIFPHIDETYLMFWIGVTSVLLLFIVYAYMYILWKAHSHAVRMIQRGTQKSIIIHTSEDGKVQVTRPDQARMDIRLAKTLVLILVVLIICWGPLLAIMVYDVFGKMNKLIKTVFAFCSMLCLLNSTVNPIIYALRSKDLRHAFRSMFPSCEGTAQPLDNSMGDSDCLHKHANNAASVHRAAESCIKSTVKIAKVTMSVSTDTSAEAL
SMILES,IC50 [1] [nM],IC50 [2] [nM],"EC50 [3, 4] [nM]",CB2 Selectivity [2],EC50 ([3]; read-out: MVD Assay EC50 (nM)) [nM],"MVD assay qualitative outcome [3, 5]"
"CCCNc1cnn(-c2cc(C(F)(F)F)cc(C(F)(F)F)c2)c(=O)c1Cl [Compound 20, 2-(3,5-Bistrifluoromethylphenyl)-4-chloro-5-propylamino-pyridazin-3-one]",> 10000,> 10000,> 10000,,,
"CNc1cnn(C2CC(C)(C)CC(C)(C)C2)c(=O)c1Cl [Compound 3, 4-Chloro-5-methylamino-2-(3,3,5,5-tetramethylcyclohexyl)pyridazin-3-one]",> 10000,355,2900,>28,,
"CN(C)CCNc1cnn(C2CC(C)(C)CC(C)(C)C2)c(=O)c1Br [Compound 14, 4-Bromo-5-(2-dimethylaminoethylamino)-2-(3,3,5,5-tetramethyl-cyclohexyl)pyridazin-3-one]",7410,42,820,177,,
"CCCNc1cnn(C(C)(C)C)c(=O)c1Cl [Compound 24, 2-t-Butyl-4-chloro-5-propylamino-pyridazin-3-one]",,> 10000,> 10000,,,
"CC1(C)CC(n2ncc(NCCN3CCOCC3)c(Br)c2=O)CC(C)(C)C1 [Compound 15, 4-Bromo-5-(2-morpholin-4-ylethylamino)-2-(3,3,5,5-tetramethyl-cyclohexyl)pyridazin-3-one]",1860,22.4,86,83,,
"CCCNc1cnn(-c2cc(C)ccc2C)c(=O)c1Cl [Compound 26, 4-Chloro-2-(2,5-dimethylphenyl)-5-propylaminopyridazin-3-one]",,10000,> 10000,,,
"CNc1cnn(C2CC(C)(C)CC(C)(C)C2)c(=O)c1 [Compound 6, 5-Methylamino-2-(3,3,5,5-tetramethyl-cyclohexyl)pyridazin-3-one]",> 10000,2090,10000,>5,,
"CC1(C)CC(n2ncc3nn(CCN4CCOCC4)cc3c2=O)CC(C)(C)C1 [Compound 37, 2-(2-Morpholin-4-ylethyl)-5-(3,3,5,5-tetramethylcyclohexyl)pyrazolo[3,4-d]pyridazin-4-one]",> 10000,1510,,>7,1400,
"CN(C)c1cnn(C2CC(C)(C)CC(C)(C)C2)c(=O)c1Cl [Compound 4, 4-Chloro-5-dimethylamino-2-(3,3,5,5-tetramethylcyclohexyl) pyridazin-3-one]",1020,17,82,60,,
"CC1(C)CC(n2ncc(Cl)c(Cl)c2=O)CC(C)(C)C1 [Compound 2, 4,5-Dichloro-2-(3,3,5,5-tetramethyl-cyclohexyl)pyridazin-3-one]",> 10000,389,> 10000,>26,,
"CCCNc1cnn(C2CCCCC2)c(=O)c1Cl [Compound 10, 4-Chloro-2-cyclohexyl-5-propylaminopyridazin-3-one]",,10000,> 10000,,,
"CN(C)c1cnn(-c2cc(C(F)(F)F)cc(C(F)(F)F)c2)c(=O)c1Cl [Compound 21, 2-(3,5-Bistrifluoromethylphenyl)-4-chloro-5-dimethylaminopyridazin-3-one]",,> 10000,> 10000,,,
"CN(C)CCN(C)c1cnn(C2CC(C)(C)CC(C)(C)C2)c(=O)c1Cl [Compound 31, 4-Chloro-5-(2-dimethylaminoethylmethylamino)-2-(3,3,5,5-tetramethyl-cyclohexyl)pyridazin-3-one]",2630,20,330,132,,
"CCCNc1cnn(-c2ccccc2)c(=O)c1Cl [Compound 9, 4-Chloro-2-phenyl-5-propylamino-pyridazin-3-one]",,> 10000,> 10000,,,
"CCCNc1cnn(C2CC(C)(C)CC(C)(C)C2)c(=O)c1Br [Compound 13, 4-Bromo-5-propylamino--2-(3,3,5,5-tetramethylcyclohexyl)pyridazin-3-one]",174,4.8,21,36,,
"CC1(C)CC(n2ncc3c(cnn3CCN3CCOCC3)c2=O)CC(C)(C)C1 [Compound 36, 1-(2-Morpholin-4-ylethyl)-5-(3,3,5,5-tetramethylcyclohexyl)pyrazolo[3,4-d]pyridazin-4-one]",219,8.5,33,26,,

SMILES,IC50 [1] [nM],IC50 [2] [nM],"EC50 [3, 4] [nM]",CB2 Selectivity [2],EC50 ([3]; read-out: MVD Assay EC50 (nM)) [nM],"MVD assay qualitative outcome [3, 5]"
"CN(C)CCNc1cnn(-c2cc(C(F)(F)F)cc(C(F)(F)F)c2)c(=O)c1Cl [Compound 23, 2-(3,5-Bistrifluoromethylphenyl)-4-chloro-5-(2-dimethylaminoethylamino)pyridazin-3-one]",,,,,,Increase
"O=c1c(Cl)c(NCCN2CCOCC2)cnn1-c1cc(Cl)cc(Cl)c1 [Compound 28, 4-Chloro-2-(3,5-dichlorophenyl)-5-(2-morpholin-4-ylethylamino)-pyridazin-3-one]",,> 10000,,,,Increase
"CCCNc1cnn(C2CC(C)(C)CC(C)(C)C2)c(=O)c1 [Compound 8, 5-Propylamino-2-(3,3,5,5-tetramethyl-cyclohexyl)pyridazin-3-one]",> 10000,68,440,>147,,
"CCCNc1cnn(Cc2ccccc2)c(=O)c1Cl [Compound 30, 2-Benzyl-4-chloro-5-propylaminopyridazin-3-one]",,> 10000,> 10000,,,
"Cc1ccc(C)c(-n2ncc(NCCN3CCOCC3)c(Cl)c2=O)c1 [Compound 29, 4-Chloro-2-(2,5-dimethylphenyl)-5-(2-morpholin-4-ylethylamino)-pyridazin-3-one]",,> 10000,> 10000,,,
"Cc1cc(C)cc(-n2ncc(N(C)C)c(Cl)c2=O)c1 [Compound 17, 4-Chloro-5-dimethylamino-2-(3,5-dimethylphenyl)-pyridazin-3-one]",,> 10000,,,,
"CN(C)c1cnn(C2CC(C)(C)CC(C)(C)C2)c(=O)c1 [Compound 7, 5-Dimethylamino-2-(3,3,5,5-tetramethylcyclohexyl)pyridazin-3-one]",> 10000,380,2500,>26,,
"CC1(C)CC(n2ncc(O)cc2=O)CC(C)(C)C1 [Compound 1, 5-hydroxy-2-(3,3,5,5-tetramethyl-cyclohexyl)pyridazin-3-one]",,1820,3700,,,
"CCCNc1cnn(CC(C)(C)C)c(=O)c1Cl [Compound 33, 4-Chloro-2-(2,2-dimethylpropyl)-5-propylaminopyridazin-3-one]",,,> 10000,,,
"O=c1c(Cl)c(NCCN2CCOCC2)cnn1-c1cc(C(F)(F)F)cc(C(F)(F)F)c1 [Compound 22, 2-(3,5-Bistrifluoromethylphenyl)-4-chloro-5-(2-morpholin-4-ylethyl-amino)pyridazin-3-one]",,> 10000,> 10000,,,
"CN(C)CCNc1cnn(C2CC(C)(C)CC(C)(C)C2)c(=O)c1Cl [Compound 12, 4-Chloro-5-(2-dimethylaminoethylamino)-2-(3,3,5,5-tetramethyl-cyclohexyl)pyridazin-3-one]",> 10000,204,2900,>49,,
"CCCn1ncc2c(=O)n(C3CC(C)(C)CC(C)(C)C3)ncc21 [Compound 34, 1-Propyl-5-(3,3,5,5-tetramethyl-cyclohexyl)pyrazolo[3,4-d]pyridazin-4-one]",257,17,,15,21,
"CC(C)(C)n1ncc(NCCN2CCOCC2)c(Cl)c1=O [Compound 27, 2-t-Butyl-4-chloro-5-(2-morpholin-4-ylethylamino)-pyridazin-3-one]",,> 10000,> 10000,,,
"CN(C)CCn1cc2c(=O)n(C3CC(C)(C)CC(C)(C)C3)ncc2n1 [Compound 39, 2-(2-Dimethylaminoethyl)-5-(3,3,5,5-tetramethylcyclohexyl)pyrazolo[3,4-d]pyridazin-4-one]",,2040,2900,,,
"CCN(CC)CCNc1cnn(C2CC(C)(C)CC(C)(C)C2)c(=O)c1Cl [Compound 32, 4-Chloro-5-(2-diethylaminoethylamino)-2-(3,3,5,5-tetramethyl-cyclohexyl)pyridazin-3-one]",,1290,10000,,,
